In this experiment the target is T1, TXNRD1 (cytosolic thioredoxin reductase 1) (Rattus norvegicus, UniProt O89049).
T1 sequence (O89049 1-499): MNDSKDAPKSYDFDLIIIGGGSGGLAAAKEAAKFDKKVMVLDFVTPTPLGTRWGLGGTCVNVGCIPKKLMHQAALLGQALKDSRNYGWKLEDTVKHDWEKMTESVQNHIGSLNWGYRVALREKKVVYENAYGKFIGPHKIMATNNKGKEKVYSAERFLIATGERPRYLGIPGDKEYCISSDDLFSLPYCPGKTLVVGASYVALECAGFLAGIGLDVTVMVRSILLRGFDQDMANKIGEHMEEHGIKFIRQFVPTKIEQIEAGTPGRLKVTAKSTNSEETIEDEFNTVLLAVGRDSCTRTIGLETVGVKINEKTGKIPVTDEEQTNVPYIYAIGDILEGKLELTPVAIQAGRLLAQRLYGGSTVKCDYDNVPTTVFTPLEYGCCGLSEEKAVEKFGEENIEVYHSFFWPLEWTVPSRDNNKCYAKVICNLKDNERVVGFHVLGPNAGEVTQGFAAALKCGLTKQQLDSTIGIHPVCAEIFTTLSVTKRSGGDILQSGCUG
In words: ITC. Format: binding.

What is called Kd is the equilibrium constant for the complex coming apart. On to `C=C1C(=O)O[C@@H]2C[C@@]3(C)CCCC(=C)[C@@H]3C[C@H]12` [IAL, Isoalantolactone], for which the affinity, expressed as Kd, was 83.9 nM.

The values are drawn from publication PMC13104650 (Acta Pharmaceutica Sinica. B, 2025).
